Key:
SHP2cat = SHP2cat (Homo sapiens (Human), UniProt Q06124); assay: Jump dilution inhibition assay; assay type: biochemical; settings: 10× preincubation 10 min, 10× jump-dilution
Procedure: Finally, we performed a jump-dilution experiment to test for irreversible inhibition of SHP2. #01 was preincubated for 10 min with SHP2cat at 10× inhibitor and protein concentrations, compared to a regular dose-response experiment, followed by a 10×jump-dilution, incubation for an additional 10 min, and addition of the DiFMUP substrate.
#01 was tested for reversibility of inhibition in a jump-dilution experiment using SHP2cat. A regular dose-response experiment (no jump-dilution) was performed in parallel. Working solutions of #01 in DMSO included 10, 3, 1, 0.3, 0.1, 0.03, 0.01, 0 mM for the jump-dilution experiment, and 1, 0.3, 0.1, 0.03, 0.01, 0.003, 0.001, 0 mM for the regular dose-response experiment. […] The enzyme reaction was started by the addition of 5 μL of DiFMUP working solution (100 μM in 50 mM Bis-Tris pH 6.0, 50 mMNaCl, 0.5 mM EDTA, and 0.01% Tween® 20), and fluorescence intensity was measured in kinetic mode (every minute for 10 min) using a Tecan Spark® Multimode Microplate Reader as described above. […] The initial rates were determined from the linear progression curves of the SHP2cat reaction. […] IC50 values were calculated from the corrected initial rates by nonlinear regression using the program GraphPad Prism (GraphPad Software, Inc., San Diego, CA) version 9.

[1] = test system: TNBC cells (BT-549 and MDA-MB-468); assay: 11-day colony formation assay; assay type: cell-based; settings: 5, 10, or 20 μM, 11 days
Procedure: Next, we performed an 11-day colony formation assay with TNBC cells treated with #02 or SHP099 at 5, 10, or 20 μM (FIG. 3D).
MDA-MB-468 and […] triple-negative breast cancer cells were maintained in DMEM+10% FBS supplemented with 1× Penicillin-Streptomycin/L-Glutamine (Omega Scientific). 1.5K cells (in […]) were seeded per well of a standard 24-well tissue culture plate (Falcon) and allowed to adhere for 24 h, before the addition of drug(s) as described. After a further 96 h, media was replaced with fresh media containing the same test compounds and concentrations. After 11 days, media was removed and cells stained with 0.5% Crystal Violet (in 20% methanol) for 20 min with agitation @ 80 rpm. Stain was removed and plates with stained cells were washed by being submerged in excess deionized water and allowed to air dry overnight before imaging.

[2] = test system: patient-derived AML cells; assay: Viability of AML patient-derived cells; assay type: cell-based, human; settings: 10 μM, two patient samples, 2 d, 4 d, or 6 d
From the text: Patient-derived AML cells were obtained from Carol Burian and Dr. James Mason (Scripps MD Anderson, La Jolla, CA) under approved IRB protocol 13-6180. Peripheral blood mononuclear cells (PBMCs) were isolated by traditional Ficoll-Paque™ PLUS (17-1440-02, GE Healthcare) centrifugation according to the manufacturer's instructions, and red blood cells were lysed using RBC Lysis Buffer (Alfa Aesar, cat. #J62990). Final PBMCs were resuspended in Bambanker serum-free freezing medium (Wako Pure Chemical Industries, Ltd.) and stored frozen before cell viability was assessed as described below.
Viability of AML, esophageal carcinoma, and TF-1 cells was assessed using the ATP-depletion assay CellTiter-Glo® (Promega). Cells were harvested at 1×10^6/mL to 2×10^6 cells/mL with cell numbers determined by trypan blue using the Countess Cell counter (Thermo Scientific) and resuspended in culture media. 3K cells (in […]) were seeded in a 384-well format white, clear bottom microplate (#781098, Greiner) spotted with test compound or vehicle control (DMSO) using an Echo 555 Liquid Handler. […] Luminescence was read on a Tecan Spark® Multimode Microplate Reader and data analyzed using Graph Pad Prism software.

Sequence of SHP2cat (Q06124 248-527): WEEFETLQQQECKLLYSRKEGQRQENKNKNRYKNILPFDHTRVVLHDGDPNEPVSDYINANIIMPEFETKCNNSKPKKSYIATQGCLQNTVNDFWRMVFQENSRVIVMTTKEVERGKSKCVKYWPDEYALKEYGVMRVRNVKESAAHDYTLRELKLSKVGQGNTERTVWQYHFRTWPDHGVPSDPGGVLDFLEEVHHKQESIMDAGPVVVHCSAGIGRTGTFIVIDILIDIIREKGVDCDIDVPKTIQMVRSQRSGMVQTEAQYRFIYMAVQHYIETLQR

Row | reversibility: jump-dilution vs regular dose-response IC50 curves (SHP2cat) | SMILES | effect on colony formation [1] | effect on growth of patient-derived AML samples [2]
1 | IC50 curves were practically identical | Nc1ccc(NC(=O)c2cc(-c3ccc(/C=C4\Sc5ccccc5C4=O)o3)ccc2O)cc1 [#01, (Z)—N-(4-Aminophenyl)-2-hydroxy-5-(5-((3-oxobenzo[b]thiophen-2(3H)-ylidene)methyl)furan-2-yl)benzamide] |  | 
2 |  | O=C(Nc1ccccc1)c1cc(-c2ccc(/C=C3\Sc4ccccc4C3=O)o2)ccc1O [#02, (Z)-2-hydroxy-5-(5-((3-oxobenzo[b]thiophen-2(3H)-ylidene)methyl)furan-2-yl)-N-phenylbenzamide] | colonies were undetectable | inhibited the growth of both AML patient samples

Reference: patent US20250026741A1, “INHIBITORS OF THE ONCOGENIC SHP2 PHOSPHATASE AND USES THEREOF” (Sanford Burnham Prebys Medical Discovery Institute, priority 2021, published 2025)
